Test results published in PubChem BioAssay (NCI).
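Growth conditions: 96-well plates. Treatment: test compound, 48 hours, 5 concentrations. Analysis: linear interpolation between bracketing concentrations; unreached endpoints set to highest concentration. GI50: concentration for 50% inhibition of growth. At the TGI there is no net growth.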

Tests used:
Assay in all cases: inhibition of tumour cell growth, NCI panel, 48 h
MALME-3M melanoma = test system: MALME-3M melanoma
A498 renal = test system: A498 renal
NCI/ADR-RES ovarian = test system: NCI/ADR-RES ovarian
RPMI-8226 leukemia = test system: RPMI-8226 leukemia
MOLT-4 leukemia = test system: MOLT-4 leukemia
HL-60(TB) leukemia = test system: HL-60(TB) leukemia
OVCAR-4 ovarian = test system: OVCAR-4 ovarian
SK-MEL-28 melanoma = test system: SK-MEL-28 melanoma
HS 578T breast = test system: HS 578T breast
IGROV1 ovarian = test system: IGROV1 ovarian
SF-268 CNS = test system: SF-268 CNS
U251 CNS = test system: U251 CNS
LOX IMVI melanoma = test system: LOX IMVI melanoma
HCT-116 colon = test system: HCT-116 colon
SNB-75 CNS = test system: SNB-75 CNS
MCF7 breast = test system: MCF7 breast
SNB-19 CNS = test system: SNB-19 CNS
SR leukemia = test system: SR leukemia
PC-3 prostate = test system: PC-3 prostate
NCI-H226 lung = test system: NCI-H226 lung
KM12 colon = test system: KM12 colon
HCC-2998 colon = test system: HCC-2998 colon
T-47D breast = test system: T-47D breast
SW-620 colon = test system: SW-620 colon
BT-549 breast = test system: BT-549 breast
SF-295 CNS = test system: SF-295 CNS
EKVX NSCLC = test system: EKVX NSCLC
NCI-H460 lung = test system: NCI-H460 lung
SF-539 CNS = test system: SF-539 CNS

COc1cc(C)c(NC(=O)CN(C)C)cc1Nc1nc(Nc2cccc(F)c2C(N)=O)c2cc[nH]c2n1 gave a GI50 (MALME-3M melanoma) of 1.91 µM, a TGI (MALME-3M melanoma) of 7.47 µM and a GI50 (A498 renal) of 1.25 µM. The TGI (A498 renal) was 6.02 µM, the GI50 (NCI/ADR-RES ovarian) was 2.64 µM and the TGI (NCI/ADR-RES ovarian) was 7.59 µM. It also gave a GI50 (RPMI-8226 leukemia) of 2.23 µM, a TGI (RPMI-8226 leukemia) of 7.99 µM and a GI50 (MOLT-4 leukemia) of 1.09 µM. For the same compound, the TGI (MOLT-4 leukemia) was 25 µM, the GI50 (HL-60(TB) leukemia) was 0.0205 µM and the TGI (HL-60(TB) leukemia) was 0.875 µM. It also gave a GI50 (OVCAR-4 ovarian) of 2.92 µM, a TGI (OVCAR-4 ovarian) of 7.43 µM and a GI50 (SK-MEL-28 melanoma) of 2.68 µM. For the same compound, the TGI (SK-MEL-28 melanoma) was 9.62 µM, the GI50 (HS 578T breast) was 3.08 µM and the TGI (HS 578T breast) was 10.2 µM. The GI50 (IGROV1 ovarian) was 1.91 µM, the TGI (IGROV1 ovarian) was 5.81 µM and the GI50 (SF-268 CNS) was 1.27 µM. The TGI (SF-268 CNS) was 5.47 µM, the GI50 (U251 CNS) was 3.12 µM and the TGI (U251 CNS) was 6.86 µM. The GI50 (LOX IMVI melanoma) was 1.45 µM, the TGI (LOX IMVI melanoma) was 6.1 µM and the GI50 (HCT-116 colon) was 0.686 µM. It also gave a TGI (HCT-116 colon) of 4.31 µM, a GI50 (SNB-75 CNS) of 3.37 µM and a TGI (SNB-75 CNS) of 6.92 µM. It also gave a GI50 (MCF7 breast) of 0.0138 µM, a TGI (MCF7 breast) of 2.9 µM and a GI50 (SNB-19 CNS) of 4.02 µM. It also gave a TGI (SNB-19 CNS) of 16 µM, a GI50 (SR leukemia) of 0.00977 µM and a TGI (SR leukemia) of 2.89 µM. For the same compound, the GI50 (PC-3 prostate) was 2.21 µM, the TGI (PC-3 prostate) was 7.56 µM and the GI50 (NCI-H226 lung) was 2.6 µM. It also gave a TGI (NCI-H226 lung) of 7.24 µM, a GI50 (KM12 colon) of 0.524 µM and a TGI (KM12 colon) of 1.92 µM. It also gave a GI50 (HCC-2998 colon) of 0.621 µM, a TGI (HCC-2998 colon) of 5.09 µM and a GI50 (T-47D breast) of 3.81 µM. The TGI (T-47D breast) was 8.38 µM, the GI50 (SW-620 colon) was 0.168 µM and the TGI (SW-620 colon) was 3.49 µM. For the same compound, the GI50 (BT-549 breast) was 4.35 µM, the TGI (BT-549 breast) was 18.9 µM and the GI50 (SF-295 CNS) was 2.13 µM. The TGI (SF-295 CNS) was 11.1 µM, the GI50 (EKVX NSCLC) was 0.937 µM and the TGI (EKVX NSCLC) was 12.5 µM. For the same compound, the GI50 (NCI-H460 lung) was 0.604 µM, the TGI (NCI-H460 lung) was 4.49 µM and the GI50 (SF-539 CNS) was 3.05 µM. It also gave a TGI (SF-539 CNS) of 7.07 µM.
